Reference: PubChem BioAssay (NCI)
Where “and” joins values, the source holds several entries; their conditions need not be identical. Equal entries are not always repeated.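 Values below derive from 48-hour exposures of cells grown in 96-well plates, with endpoints linearly interpolated between the two concentrations bracketing the appropriate inhibition level. Abbreviation: GI50, concentration required for 50% inhibition of growth. TGI: concentration producing complete growth inhibition.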

Columns and labels:
Experiment in all cases: NCI-60 cell line screen, 48 h
UACC-257 melanoma = test system: UACC-257 melanoma
MDA-MB-435 = test system: MDA-MB-435
T-47D breast = test system: T-47D breast
LOX IMVI melanoma = test system: LOX IMVI melanoma
TK-10 renal = test system: TK-10 renal
DU-145 prostate = test system: DU-145 prostate
RXF 393 renal = test system: RXF 393 renal
NCI-H23 lung = test system: NCI-H23 lung
SF-539 CNS = test system: SF-539 CNS
UO-31 renal = test system: UO-31 renal

SMILES | GI50 (UACC-257 melanoma) | TGI (UACC-257 melanoma) | GI50 (MDA-MB-435) | TGI (MDA-MB-435) | GI50 (T-47D breast) | TGI (T-47D breast) | GI50 (LOX IMVI melanoma) | TGI (LOX IMVI melanoma) | GI50 (TK-10 renal) | TGI (TK-10 renal) | GI50 (DU-145 prostate) | TGI (DU-145 prostate) | GI50 (RXF 393 renal) | TGI (RXF 393 renal) | GI50 (NCI-H23 lung) | TGI (NCI-H23 lung) | GI50 (SF-539 CNS) | TGI (SF-539 CNS) | GI50 (UO-31 renal) | TGI (UO-31 renal)
COC1=CC(c2ccc[nH]2)=N/C1=C\c1[nH]c(C)c(C(=O)CCC(=O)Oc2ccc3c(c2)CCC2C3CC[C@]3(C)[C@@H](O)CC[C@@H]23)c1C (stereo not given in full) | > 100 µM | > 100 µM | 3.25 µM | > 100 µM | 2.19 µM | > 100 µM | 0.797 µM | 2.57 µM | 7.68 µM | > 100 µM | 3.54 µM | > 100 µM | 4.71 µM | 69.8 µM | 3.56 µM | > 100 µM | 3.69 µM | 28.8 µM | 1.59 µM | 3.73 µM
C[C@H](c1ccc(F)cc1CCCC(=O)O)N(c1cc(F)ccc1F)S(=O)(=O)c1ccc(Cl)cc1 | 26.9 µM | > 100 µM | 20.6 µM | 51.3 µM | 19.2 µM | > 83.9 µM | 29.2 µM | > 100 µM | 55.3 µM | > 100 µM | 34 µM | > 100 µM | 21 µM | > 79.7 µM | 19.6 µM | 59 µM | 24.5 µM | 67.9 µM | 25.4 µM | > 100 µM
OCc1ccc(-c2csc(-c3ccc(CO)o3)c2)o1 | 1.56 µM | 4.75 µM | 24.1 µM | > 100 µM | 1.44 µM | 40 µM | 66.5 µM | > 100 µM | 0.64 µM | > 37.1 µM | 37.7 µM | > 100 µM | > 79.7 µM | > 100 µM | 34.9 µM | > 100 µM | 99.7 µM | > 100 µM | 49.7 µM | > 100 µM
CC#C[C@]1(O)CCC2[C@@H]3CCC4=CC(=O)CCC4=C3[C@@H](c3ccc(N(C)C)cc3)C[C@@]21C (stereo not given in full) |  | 36.5 µM |  | 34 µM |  | > 100 µM |  | 33.7 µM |  | 43.1 µM |  | 73.1 µM |  |  |  | 62.1 µM |  | 28.5 µM |  | 28.2 µM
COc1cc2c3c(n(CCCN(CCCN(CCCn4c5c(c6ccccc6c4=O)C(=O)c4ccccc4-5)C(=O)OC(C)(C)C)C(=O)OC(C)(C)C)c(=O)c2cc1OC)-c1cc2c(cc1C3=O)OCO2 | > 100 µM | > 100 µM | > 100 µM | > 100 µM | > 100 µM | > 100 µM | 26.5 µM | > 100 µM | 50.1 µM | > 100 µM |  |  | > 100 µM | > 100 µM | > 100 µM | > 100 µM |  |  | > 100 µM | > 100 µM
O=C(c1ccccc1)C(Cl)C(Cl)c1ccccc1 (stereo not given) |  |  | 2.26 µM | 5.56 µM | 2.74 µM | 11.3 µM | 1.43 µM | 2.82 µM | 3.14 µM | 9.12 µM | 2.89 µM | 10.2 µM | 1.72 µM | 3.52 µM | 3.27 µM | 12.8 µM | 3.01 µM | 10.2 µM | 1.62 µM | 3.45 µM
CCCCCCCCCCCCCC[n+]1ccccc1 | 0.93 µM | 3.07 µM | 0.549 µM | 1.87 µM | 0.486 µM | 7.54 µM |  |  | 0.491 µM | 1.81 µM | 1.17 µM | 2.85 µM |  |  | 0.507 µM | 3.02 µM | 1.28 µM | 2.6 µM | 1.42 µM | 4.82 µM
O=C(CN1CCCC1=O)CS(=O)(=O)c1ccccc1 |  | > 100 µM |  | > 100 µM |  |  |  | > 100 µM |  | > 100 µM |  | > 100 µM |  | > 100 µM |  | > 100 µM |  | > 100 µM |  | > 100 µM
Cc1ccc([Se](=C(C(=O)c2ccccc2)C(=O)c2ccccc2)c2ccc(C)cc2)cc1 |  | 53.1 µM |  | 55 µM |  | > 100 µM |  |  |  | 94.6 µM |  | > 100 µM |  | > 100 µM |  | 59.2 µM |  | 66 µM |  | > 100 µM
CC1(C)CC(=O)C=C(/C=C/Sc2c(Cl)c(Cl)nc(Cl)c2Cl)C1 | 15.6 µM | 31.8 µM | 2.88 µM | 8.2 µM |  |  | 3.26 µM | 12.9 µM | 19.6 µM | 35.5 µM | 10 µM | 21.7 µM | 7.61 µM | 22 µM | 6.34 µM | 19.3 µM | 11.8 µM | 26.4 µM | 10 µM | 33.4 µM
COC(=O)C12CCC(C)(C)CC1C1=CCC3C4(C)CC(O)C(O)C(C)(C(=O)OC)C4CCC3(C)C1(CO)CC2 (stereo not given) |  | 31.7 µM |  | 32.4 µM |  | 24 µM |  | 28.1 µM |  | 33.7 µM |  | 29.1 µM |  | 19.5 µM |  | 32.2 µM |  | 31.6 µM |  | 
O=C1/C(=C/c2ccc([N+](=O)[O-])s2)Oc2cc(Cl)ccc21 |  |  |  |  | 1.5 µM | > 100 µM |  |  | 8.27 µM | > 21.1 µM | 3.81 µM | > 100 µM | 1.04 µM | 2.63 µM |  |  |  |  | 0.317 µM | 1.22 µM
C/C(=N\NC(=S)N1CCN(c2ccccn2)CC1)c1ccccn1 |  |  |  | 12.3 µM |  | 7.37 µM |  | 14.4 µM |  | 13.9 µM |  | 14.1 µM |  | 13.4 µM |  | 11.5 µM | 0.0272 µM | 8.02 µM | 0.141 µM | 6.8 µM
CC(=O)OCC12CN(C#N)C3C4COC(CC41)C1(C(=O)N(C)c4ccccc41)C32 (stereo not given) |  | 51.8 µM |  | > 100 µM |  | 62.7 µM |  | 49.1 µM |  | 66.5 µM |  | 37.7 µM |  | 38.3 µM |  | 44.6 µM |  |  |  | 31.4 µM
CN1C(=O)CC2(C)c3cc(O)cc(Br)c3N(C)C12 (stereo not given) |  | > 100 µM |  |  |  |  |  | > 100 µM |  | > 100 µM |  |  |  | > 100 µM |  | > 100 µM |  | > 100 µM |  | > 100 µM
C[C@@H](N)COc1ccc(-c2cnc3ccc(N[C@H](C)c4cccc(F)c4)nn23)cc1 | 1.62 µM | 3.11 µM | 1.47 µM | 3.07 µM | 1.5 µM | 3.35 µM | 1.42 µM | 2.72 µM | 1.75 µM | 8.22 µM | 3.01 µM | 11.4 µM |  |  | 2.96 µM | 13.1 µM | 1.52 µM | 2.86 µM | 1.94 µM | 7.81 µM
COC(=O)c1cc(NC(=O)c2cc(NC(=O)c3cc([N+](=O)[O-])n(C)c3)cn2C)cn1C | > 100 µM | > 100 µM | > 100 µM | > 100 µM | > 100 µM | > 100 µM | 10.7 µM | 85.9 µM | 46.7 µM | > 100 µM |  |  | > 100 µM | > 100 µM | 24.5 µM | > 100 µM | 56.1 µM | > 100 µM | > 100 µM | > 100 µM
Cc1ccc([P+](Cc2ccccc2)(c2ccccc2)c2ccccc2)cc1 | 0.98 µM | 4.8 µM | 0.61 µM | 3.42 µM |  |  | 2.48 µM | 14.3 µM |  |  | 3.62 µM | > 100 µM | 3.68 µM | 41.1 µM |  |  | 3.03 µM | 50.9 µM | 10.3 µM | 67.7 µM
O=C(CN1CCN(Cc2ccccc2Cl)CC1)NC1CC(=O)c2c(Br)sc(Br)c21 (stereo not given) | 22.3 µM | 44 µM | 21.5 µM | 52.5 µM | 21.6 µM | 43.9 µM | 18.6 µM | 35.8 µM | 44.3 µM | 97.1 µM | 18.8 µM | 33.6 µM |  |  |  |  | 20.3 µM | 36.1 µM | 17.4 µM | 31.8 µM
COc1cc2c(c(O)c1Cl)C(=O)c1c(O)cc(C[C@H](C)O)cc1[C@H]2[C@H]1c2cc(C[C@H](C)O)cc(O)c2C(=O)c2c1cc(OC)c(Cl)c2O |  |  |  | 16 µM and 98.3 µM |  |  |  | 13.2 µM and > 100 µM |  | 33 µM and > 100 µM |  | 75 µM and > 100 µM |  |  |  | 75 µM and 84.6 µM |  |  |  | 
C/C(CCn1[nH]c(=O)ccc1=O)=N\NC(=O)C(N)=O |  | > 100 µM |  |  |  |  |  | > 100 µM |  | > 100 µM |  |  |  | > 100 µM |  | > 100 µM |  | > 100 µM |  | > 100 µM
COC(=O)C1=COC2OC3C(C(C)O)C(=O)OC34C=CC1C24 (stereo not given) |  | > 100 µM |  | > 100 µM |  | > 100 µM |  | > 100 µM |  | > 100 µM |  | > 100 µM |  |  |  | > 100 µM |  | > 100 µM |  | > 100 µM
N#CC(C#N)=CNCCN1CCN(C=C(C#N)C#N)CC1 |  | > 100 µM |  | > 100 µM |  | > 100 µM |  | > 100 µM |  | > 100 µM |  | > 100 µM |  |  |  | > 100 µM |  | > 100 µM |  | > 100 µM
CC(C)(C)N/N=C(\C(=O)Nc1cccc(Cl)c1)C1C(=O)Nc2ccccc2S1=O (stereo not given) |  | > 100 µM |  |  |  |  |  | > 100 µM |  | > 100 µM |  |  |  | > 100 µM |  | > 100 µM |  | > 100 µM |  | > 100 µM
O=C(O)CN(c1ccccc1)S(=O)(=O)c1cccc([N+](=O)[O-])c1 |  | > 100 µM |  |  |  |  |  | > 100 µM |  | > 100 µM |  |  |  | > 100 µM |  | > 100 µM |  | > 100 µM |  | > 100 µM
COC(=O)Oc1nn(C(=O)OC)c(=O)c2ccccc12 |  | > 100 µM |  | > 100 µM |  | > 100 µM |  | > 100 µM |  | > 100 µM |  | > 100 µM |  |  |  | > 100 µM |  | > 100 µM |  | > 100 µM
